The values that follow come from patent US20180221438A1, “MODULATING URACIL-DNA GLYCOSYLASE AND USES THEREOF” (Adaerata Limited Partnership, priority 2015, published 2018).

Common to all, as to format: cell-based
The test system of data set [1] is B cells from wt or UNG−/− mice. The experiment in a line: B cell expansion by cell count after DidB treatment. Particulars: cells counted 48 h post-treatment, LPS and IL-4. As to the method: (§1) B cells were purified from wt or UNG−/− mice, and cultured directly with LPS and IL-4 and were counted 48 h post-treatment in order to measure B cell expansion (FIG. 14B); or after loading with the CFSE dye and cell divisions for treated cells were measured by analyzing the dilution of CFSE dye at 24 h post-treatment. Dilution of CFSE in cells is proportional to proliferation (FIGS. 14C-D).
(§2) 24 h later, cells were treated with either DMSO or DidB.

Data set [2] relates to B cells from wt or UNG−/− mice. Put plainly: B cell divisions by CFSE dilution after DidB treatment. Particulars: Ung-deficient vs wt B cells. The protocol: as §1, §2
For data set [3], the system named is Primary B cells from AID UNG double deficient mice. The conditions noted are these: 1 nM DidB, 72 h, AID-ires-GFP vs GFP alone or AIDE58A. As to the method:
Primary B cells were harvested from AID UNG double deficient mice and cultured with anti-CD180, IL-4 and LPS. […] 24 h post infection, cells were treated with either DMSO vehicle or 1 nM of the EEF1A inhibitor DidB. Toxicity was measured after 72 h as the % difference of GFP+ cells in the DidB-treated culture compared to DMSO control. Data from two mice are averaged, bars are SEM.

Regarding `CC[C@H](C)[C@H]1NC(=O)[C@@H](NC(=O)[C@@H](CC(C)C)N(C)C(=O)[C@@H]2CCCN2C(=O)C(C)O)[C@@H](C)OC(=O)[C@H](Cc2ccc(OC)cc2)N(C)C(=O)[C@@H]2CCCN2C(=O)[C@H](CC(C)C)NC(=O)[C@@H](C)C(=O)[C@H](C(C)C)OC(=O)C[C@@H]1O` (stereo partly shown) [DidB, didemnin B], the B cell expansion entry in data set [1] is recorded as “further diminishes expansion in Ung-deficient B cells”. In data set [2] (24 h post-treatment), the “sensitivity to DidB treatment (cell divisions, CFSE)” value was “more sentitive”. Besides, in data set [2] (dose-dependent, CFSE dilution 24 h post-treatment), the inhibition of proliferation result is listed as “more marked in Ung-deficient B cells than wt B cells”. The “sensitivity to DidB (toxicity, % difference of GFP+ cells vs DMSO)” value in data set [3] is “substantially more sensitive”.
